Reference: patent US7612113B2, “Hydroxy tetrahydro-naphthalenylurea derivatives” (Xention Limited, priority 2002, dated 2009)
Where two headings read alike, the source gives them in different places.

Key:
[1] = biological target: T1, human VR1 (Homo sapiens, UniProt Q8NER1); test: capsaicin-induced Ca2+ influx in the human VR1-transfected CHO cell line (Assay 1); assay type: cell-based; details: 10 nM capsaicin, human VR1-CHOluc9aeq cells
T1 construct: expressed in transfected cells
Text: [Measurement of capsaicin-induced Ca^2+ influx in the human VR1-transfected CHO cell line] (Assay 1)
• (1) Establishment of the Human VR1-CHOluc9aeq Cell Line • Human vanilloid receptor (hVR1) cDNA was cloned from libraries of axotomized dorsal root ganglia (WO 00/29577). The cloned hVR1 cDNA was constructed with pcDNA3 vector and transfected into a CHOluc9aeq cell line. The cell line contains aequorin and CRE-luciferase reporter genes as read-out signals. The transfectants were cloned by limiting dilution in selection medium (DMEM/F12 medium (Gibco BRL) supplemented with 10% FCS, 1.4 mM Sodium pyruvate, 20 mM HEPES, 0.15% Sodium bicarbonate, 100 U/ml penicillin, 100 μg/ml streptomycin, 2 mM glutamine, non-essential amino acids and 2 mg/ml G418). Ca^2+ influx was examined in the capsaicin-stimulated clones. A high responder clone was selected and used for further experiments in the project. The human VR1-CHOluc9aeq cells were maintained in the selection medium and passaged every 3-4 days at 1-2.5×10^5 cells/flask ([…]). • (2) Measurement of Ca^2+ Influx Using FDSS-3000 • Human VR1-CHOluc9aeq cells were suspended in a culture medium which is the same as the selection medium except for G418 and seeded at a density of 1,000 cells per well into 384-well plates (black walled clear-base/Nalge Nunc International). Following the culture for 48 hrs the medium was changed to 2 μM Fluo-3 AM (Molecular Probes) and 0.02% Puronic F-127 in assay buffer (Hank's balanced salt solution (HBSS), 17 mM HEPES (pH7.4), 1 mM Probenecid, 0.1% BSA) and the cells were incubated for 60 min at. 25° C. After washing twice with assay buffer the cells were incubated with a test compound or vehicle for 20 min at 25° C. Mobilization of cytoplasmic Ca^2+ was measured by FDSS-3000 (λex=488 nm, λem=540 nm/Hamamatsu Photonics) for 60 sec after the stimulation with 10 nM capsaicin. Integral R was calculated and compared with controls. [Measurement of the Capsaicin-Induced Ca^2+ Influx in Primary Cultured Rat Dorsal Root Ganglia Neurons] (Assay 2) • (1) Preparation of Rat Dorsal Root Ganglia Neurons • New born Wister rats (5-11 days) were sacrificed and dorsal root ganglia (DRG) was removed. DRG was incubated with 0.1% trypsin (Gibco BRL) in PBS(−) (Gibco BRL) for 30 min at 37° C., then a half volume of fetal calf serum (FCS) was added and the cells were spun down. The DRG neuron cells were resuspended in Ham F12/5% FCS/5% horse serum (Gibco BRL) and dispersed by repeated pipetting and passing through 70 μm mesh Falcon). The culture plate was incubated for 3 hours at 37° C. to remove contaminating Schwann cells. Non-adherent cells were recovered and further cultured in laminin-coated 384 well plates (Nunc) at 1×10^4 cells/50 μl/well for 2 days in the presence of 50 ng/ml recombinant rat NGF (Sigma) and 50 μM 5-fluorodeoxyuridine (Sigma). • (2) Ca^2+ Mobilization Assay • DRG neuron cells were washed twice with HBSS supplemented with 17 mM HEPES (pH 7.4) and 0.1% BSA. After incubating with 2 μM fluo-3AM (Molecular Probe), 0.02% PF127 (Gibco BRL) and 1 mM probenecid (Sigma) for 40 min at 37° C., cells were washed 3 times. The cells were incubated with VR1 antagonists or vehicle (dimethylsulphoxide) and then with 1 μM capsaicin in FDSS-6000 (λex=480 nm, λem=520 nm/Hamamatsu Photonics). The fluorescence changes at 480 nm were monitored for 2.5 min. Integral R was calculated and compared with controls. [Organ Bath Assay to Measure the Capsaicin-Induced Bladder Contraction] (Assay 3)
The data corresponds to the compounds as yielded by solid phase synthesis and thus to levels of purity of about 40 to 90%. For practical reasons, the compounds are grouped in four classes of activity as follows: IC50=A(<or=)0.1 μM<B(<or=)0.5 μM<C(<or=)1 μM<D

[2] = Table 1, read-out: activity class
[3] = Table 3, read-out: activity class
[4] = read-out: In vitro activity class
[5] = Table 2, read-out: activity class

T1 sequence (Q8NER1 whole entry): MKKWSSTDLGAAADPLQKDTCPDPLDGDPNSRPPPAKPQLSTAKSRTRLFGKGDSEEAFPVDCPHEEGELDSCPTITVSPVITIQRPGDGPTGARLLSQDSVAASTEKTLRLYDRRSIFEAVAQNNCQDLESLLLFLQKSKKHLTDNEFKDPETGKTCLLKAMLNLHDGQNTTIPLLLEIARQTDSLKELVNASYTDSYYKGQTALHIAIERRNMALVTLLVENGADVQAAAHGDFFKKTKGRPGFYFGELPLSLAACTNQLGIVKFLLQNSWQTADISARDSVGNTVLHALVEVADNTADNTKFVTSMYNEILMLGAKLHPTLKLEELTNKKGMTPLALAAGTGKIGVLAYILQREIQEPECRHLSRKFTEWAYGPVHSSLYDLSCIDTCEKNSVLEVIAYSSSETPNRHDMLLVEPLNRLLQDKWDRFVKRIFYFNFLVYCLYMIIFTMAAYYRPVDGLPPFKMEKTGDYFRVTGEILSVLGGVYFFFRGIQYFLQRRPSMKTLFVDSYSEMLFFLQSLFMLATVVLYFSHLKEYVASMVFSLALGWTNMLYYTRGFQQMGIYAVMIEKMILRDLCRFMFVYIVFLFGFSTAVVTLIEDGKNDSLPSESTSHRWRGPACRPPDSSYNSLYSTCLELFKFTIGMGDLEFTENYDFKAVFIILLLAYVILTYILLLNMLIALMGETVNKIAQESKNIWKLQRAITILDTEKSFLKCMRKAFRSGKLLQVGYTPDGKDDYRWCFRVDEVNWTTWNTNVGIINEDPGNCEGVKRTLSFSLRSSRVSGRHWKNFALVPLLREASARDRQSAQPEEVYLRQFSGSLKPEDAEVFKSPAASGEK

| melting point | IC50 [1, 2] | IC50 [1, 3] | IC50 [1, 4] | IC50 [1, 5] | SMILES |
| --- | --- | --- | --- | --- | --- |
| 216 to 217 °C | > 1 µM | – | – | – | CCNC(=O)Nc1cccc2c1CC(O)CC2 (stereo not shown) [Example 2-33] |
| 218 to 221 °C | < 0.1 µM | – | – | – | O=C(NCc1ccc(F)cc1)Nc1cccc2c1CC(O)CC2 (stereo not shown) [Example 2-29] |
| 161 to 163 °C | 0.5 to 1 µM | – | – | – | O=C(NCCc1ccccc1)Nc1cccc2c1CC(O)CC2 (stereo not shown) [Example 2-32] |
| 204 to 205 °C | – | 0.1 to 0.5 µM | – | – | O=C(Nc1cccc(F)c1)Nc1cccc2c1CC(O)CC2 (stereo not shown) [Example 5-3] |
| 184 to 187 °C | 0.1 to 0.5 µM | – | – | – | O=C(NCc1ccccc1F)Nc1cccc2c1CC(O)CC2 (stereo not shown) [Example 2-27] |
| 234 to 235 °C | < 0.1 µM | – | – | – | O=C(Nc1ccc(Cl)c(C(F)(F)F)c1)Nc1ccc(Br)c2c1CC(O)CC2 (stereo not shown) [Example 2-38] |
| 187 to 189 °C | 0.1 to 0.5 µM | – | – | – | COc1cccc(NC(=O)Nc2cccc3c2CC(O)CC3)c1 (stereo not shown) [Example 2-5] |
| 197 to 199 °C | 0.1 to 0.5 µM | – | – | – | O=C(Nc1ccccc1Cl)Nc1cccc2c1CC(O)CC2 (stereo not shown) [Example 2-2] |
| 194 to 196 °C | 0.1 to 0.5 µM | – | – | – | Cc1cccc(CNC(=O)Nc2cccc3c2CC(O)CC3)c1 (stereo not shown) [Example 2-24] |
| 213 °C | 0.1 to 0.5 µM | – | – | – | CC1(O)CCc2cccc(NC(=O)Nc3ccc(Cl)c(C(F)(F)F)c3)c2C1 (stereo not shown) [Example 2-41] |
| 237 to 239 °C | < 0.1 µM | – | – | – | O=C(Nc1ccc(Br)cc1)Nc1cccc2c1CC(O)CC2 (stereo not shown) [Example 2-16] |
| 178 to 180 °C | > 1 µM | – | – | – | CCOC(=O)c1ccccc1NC(=O)Nc1cccc2c1CC(O)CC2 (stereo not shown) [Example 2-10] |
| 224 to 226 °C | 0.1 to 0.5 µM | – | – | – | Cc1ccccc1CNC(=O)Nc1cccc2c1CC(O)CC2 (stereo not shown) [Example 2-23] |
| 194 to 195 °C | – | < 0.1 µM | – | – | O=C(Nc1cccc(Oc2ccccc2)c1)Nc1cccc2c1CC(O)CC2 (stereo not shown) [Example 5-10] |
| 226 to 228 °C | – | < 0.1 µM | – | – | O=C(Nc1cccc(I)c1)Nc1cccc2c1CC(O)CC2 (stereo not shown) [Example 5-13] |
| 136 to 137 °C | 0.1 to 0.5 µM | – | – | – | CN(C(=O)Nc1ccc(Cl)c(C(F)(F)F)c1)c1cccc2c1CC(O)CC2 (stereo not shown) [Example 2-40] |
| 213 to 215 °C | 0.1 to 0.5 µM | – | – | – | O=C(NCc1ccccc1Cl)Nc1cccc2c1CC(O)CC2 (stereo not shown) [Example 2-30] |
| 203 to 204 °C | – | < 0.1 µM | – | – | O=C(Nc1cccc(OC(F)(F)F)c1)Nc1cccc2c1CC(O)CC2 (stereo not shown) [Example 5-11] |
| 176 to 178 °C | < 0.1 µM | – | – | – | CCOC(=O)c1cccc(NC(=O)Nc2cccc3c2CC(O)CC3)c1 (stereo not shown) [Example 2-11] |
| 227 to 228 °C | – | – | – | – | O=C(Nc1ccc(Cl)c(C(F)(F)F)c1)Nc1cccc2c1CC(O)CC2 (stereo not shown) [Example 1-1, N-[4-chloro-3-(trifluoromethyl)phenyl]-N′-(7-hydroxy-5,6,7,8-tetrahydro-1-naphthalenyl)urea] |
| 223 °C | – | 0.5 to 1 µM | – | – | Cc1ccccc1NC(=O)Nc1cccc2c1CC(O)CC2 (stereo not shown) [Example 5-6] |
| 188 to 190 °C | < 0.1 µM | – | – | – | O=C(Nc1ccc(Oc2ccccc2)cc1)Nc1cccc2c1CC(O)CC2 (stereo not shown) [Example 2-20] |
| 214 to 216 °C | 0.1 to 0.5 µM | – | – | – | O=C(Nc1ccc(F)cc1)Nc1cccc2c1CC(O)CC2 (stereo not shown) [Example 2-15] |
| 230 to 232 °C | < 0.1 µM | – | – | – | Cc1ccc(CNC(=O)Nc2cccc3c2CC(O)CC3)cc1 (stereo not shown) [Example 2-26] |
| 213 to 215 °C | > 1 µM | – | – | – | COc1ccc(NC(=O)Nc2cccc3c2CC(O)CC3)cc1 (stereo not shown) [Example 2-6] |

| melting point | IC50 [1, 2] | IC50 [1, 3] | IC50 [1, 4] | IC50 [1, 5] | SMILES |
| --- | --- | --- | --- | --- | --- |
| 234 to 235 °C | < 0.1 µM | – | – | – | O=C(Nc1ccc(Cl)c(Cl)c1)Nc1cccc2c1CC(O)CC2 (stereo not shown) [Example 2-17] |
| 212 to 214 °C | < 0.1 µM | – | – | – | O=C(Nc1ccc2ccccc2c1)Nc1cccc2c1CC(O)CC2 (stereo not shown) [Example 2-14] |
| 217 to 219 °C | 0.5 to 1 µM | – | – | – | O=C(Nc1ccccc1C(F)(F)F)Nc1cccc2c1CC(O)CC2 (stereo not shown) [Example 2-7] |
| 209 to 211 °C | 0.1 to 0.5 µM | – | – | – | COc1ccc(CNC(=O)Nc2cccc3c2CC(O)CC3)cc1 (stereo not shown) [Example 2-31] |
| 229 to 231 °C | < 0.1 µM | – | – | – | O=C(Nc1ccc(Cl)cc1)Nc1cccc2c1CC(O)CC2 (stereo not shown) [Example 2-4] |
| 227 to 228 °C | < 0.1 µM | – | – | – | O=C(Nc1cccc(C(F)(F)F)c1)Nc1cccc2c1CC(O)CC2 (stereo not shown) [Example 2-8] |
| 198 to 200 °C | 0.1 to 0.5 µM | – | – | – | O=C(NCc1ccccc1)Nc1cccc2c1CC(O)CC2 (stereo not shown) [Example 2-22] |
| 196 to 197 °C | – | 0.1 to 0.5 µM | – | – | O=C(Nc1ccccc1Br)Nc1cccc2c1CC(O)CC2 (stereo not shown) [Example 5-4] |
| 204.3 °C | – | – | < 0.1 µM | – | O=C(NCc1ccc(C(F)(F)F)cc1)Nc1cccc2c1C[C@H](O)CC2 [Example 4-4, N-{(R)-7-hydroxy-5,6,7,8-tetrahydro-naphthalen-1-yl}-N′-(4-trifluoromethyl-benzyl)-urea] |
| 198 to 199 °C | 0.5 to 1 µM | – | – | – | O=C(Nc1ccccc1)Nc1cccc2c1CC(O)CC2 (stereo not shown) [Example 2-34] |
| 198 to 200 °C | 0.1 to 0.5 µM | – | – | – | Cc1cccc(NC(=O)Nc2cccc3c2CC(O)CC3)c1 (stereo not shown) [Example 2-18] |
| 204 to 206 °C | < 0.1 µM | – | – | – | CCOC(=O)c1ccc(NC(=O)Nc2cccc3c2CC(O)CC3)cc1 (stereo not shown) [Example 2-12] |
| 198 to 200 °C | – | – | < 0.1 µM | – | O=C(Nc1ccc(OC(F)(F)F)cc1)Nc1cccc2c1CC(O)CC2 (stereo not shown) [Example 5-1, N-(7-hydroxy-5,6,7,8-tetrahydro-naphthalen-1-yl)-N′-(4-trifluoromethoxy-phenyl)-urea] |
| 250 to 252 °C | < 0.1 µM | – | – | – | O=C(Nc1cccc2c1CC(O)CC2)Nc1cccc2ccccc12 (stereo not shown) [Example 2-13] |
| 186 to 188 °C | < 0.1 µM | – | – | – | CC(C)c1ccc(NC(=O)Nc2cccc3c2CC(O)CC3)cc1 (stereo not shown) [Example 2-19] |
| – | – | – | – | < 0.1 µM | O=C(NCc1ccc(C(F)(F)F)c(NC2CCCC2)c1)Nc1cccc2c1CC(O)CC2 (stereo not shown) [Example 4-52] |
| – | – | – | – | < 0.1 µM | O=C(NCc1cccc(Cl)c1)Nc1cccc2c1CC(O)CC2 (stereo not shown) [Example 4-14] |
| – | – | – | 0.5 to 1 µM | – | O=C(Nc1ccccc1)Nc1cccc2c1CC(O)CC2 (stereo not shown) [Example 2-1, N-phenyl-N′-(7-hydroxy-5,6,7,8-tetrahydro-1-naphthalenyl) urea] |
| – | < 0.1 µM | – | – | – | COc1cc(NC(=O)Nc2cccc3c2CC(O)CC3)cc(OC)c1 (stereo not shown) [Example 2-37] |
| – | – | – | – | < 0.1 µM | O=C(NCc1cccc(Br)c1)Nc1cccc2c1CC(O)CC2 (stereo not shown) [Example 4-24] |
| – | – | – | – | 0.1 to 0.5 µM | N#CCc1ccc(NC(=O)Nc2cccc3c2CC(O)CC3)cc1 (stereo not shown) [Example 4-47] |
| – | – | – | – | 0.1 to 0.5 µM | COc1ccc(CNC(=O)Nc2cccc3c2CC(O)CC3)c(OC)c1 (stereo not shown) [Example 4-20] |
| – | – | – | – | < 0.1 µM | O=C(NCc1ccc(Br)cc1)Nc1cccc2c1CC(O)CC2 (stereo not shown) [Example 4-7] |
| – | – | – | < 0.1 µM | – | O=C(NCc1ccc(C(F)(F)F)cc1)Nc1cccc2c1C[C@@H](O)CC2 [Example 4-5, N-{(S)-7-hydroxy-5,6,7,8-tetrahydro-naphthalen-1-yl}-N′-(4-trifluoromethyl-benzyl)-urea] |
